Test [1] concerns BJ. The experiment in a line: BJ-TERT fibroblast viability loss – cell-based, RAS-independent, luminescence, dose response (AID 1933). In kind it is functional. The conditions noted are these: Homo sapiens.
The test system of test [2] is BJ. The experiment in a line: cells. In kind it is functional, cell-based. The conditions noted are these: Homo sapiens.
The nature of test [3]: viability of PTEN-deleted HCT116 cells – cell-based, HCT116 PTEN knockout, dose response (AID 1047).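 Note: HCT116 colon tumor cells with PTEN knocked out; cells exposed to compound for 60 hours before readout; potency for loss of cell viability measured by luminescence.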 In kind it is functional.
Test [4] can be described thus: viability of HCT116 lacking mutant beta-catenin – cell-based, human colon tumor, dose response (AID 1045).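 Note: HCT116 colon tumor cells with beta catenin knocked out; cells exposed to compound for 60 hours.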 In kind it is functional.
Test [5] concerns BJ. The experiment in a line: BJ-TERT-LT-ST fibroblast viability loss – cell-based, RAS-independent, luminescence, dose response (AID 1935).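 Note: BJ fibroblasts immortalized with TERT plus LT and ST oncogenes.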 As to conditions: Homo sapiens. In kind it is functional.
The nature of test [6]: DRD fibroblast viability loss – cell-based, non-viral oncogenic, luminescence, dose response (AID 1934). In kind it is functional. The conditions noted are these: Homo sapiens.
The target in test [7] is T1, Hexokinase HKDC1 (Homo sapiens, UniProt Q2TB90).
T1 sequence (Q2TB90 whole entry): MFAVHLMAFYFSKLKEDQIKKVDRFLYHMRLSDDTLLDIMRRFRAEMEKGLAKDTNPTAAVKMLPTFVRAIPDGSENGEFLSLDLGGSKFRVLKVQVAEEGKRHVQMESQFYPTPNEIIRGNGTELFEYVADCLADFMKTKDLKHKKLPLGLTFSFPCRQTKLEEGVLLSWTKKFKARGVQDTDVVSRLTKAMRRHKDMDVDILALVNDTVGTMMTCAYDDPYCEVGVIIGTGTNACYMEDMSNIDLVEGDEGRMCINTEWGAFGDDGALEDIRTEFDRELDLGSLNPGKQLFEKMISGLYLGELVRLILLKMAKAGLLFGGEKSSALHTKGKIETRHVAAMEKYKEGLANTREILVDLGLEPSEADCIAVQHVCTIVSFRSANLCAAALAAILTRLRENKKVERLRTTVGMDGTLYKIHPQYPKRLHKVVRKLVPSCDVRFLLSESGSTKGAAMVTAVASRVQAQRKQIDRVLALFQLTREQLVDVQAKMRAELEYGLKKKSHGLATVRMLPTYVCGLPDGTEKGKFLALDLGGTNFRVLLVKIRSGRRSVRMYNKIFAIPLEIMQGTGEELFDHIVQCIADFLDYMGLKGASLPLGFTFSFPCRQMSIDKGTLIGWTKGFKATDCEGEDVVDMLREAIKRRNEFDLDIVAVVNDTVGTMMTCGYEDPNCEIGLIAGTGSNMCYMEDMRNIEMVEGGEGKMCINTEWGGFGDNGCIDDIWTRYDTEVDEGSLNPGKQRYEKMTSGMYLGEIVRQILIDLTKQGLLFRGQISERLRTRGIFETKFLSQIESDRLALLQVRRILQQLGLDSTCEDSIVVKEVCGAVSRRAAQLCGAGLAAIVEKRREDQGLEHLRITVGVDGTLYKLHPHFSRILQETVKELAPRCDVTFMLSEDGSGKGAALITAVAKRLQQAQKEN
The experiment in a line: inhibition of HKDC1 glucose phosphorylation – biochemical, W721R variant, dose response (AID 504729). In kind it is functional.

Test [8] addresses T2, Replicative DNA helicase DnaB (Mycobacterium tuberculosis, UniProt P9WMR3).
T2 sequence (P9WMR3 whole entry): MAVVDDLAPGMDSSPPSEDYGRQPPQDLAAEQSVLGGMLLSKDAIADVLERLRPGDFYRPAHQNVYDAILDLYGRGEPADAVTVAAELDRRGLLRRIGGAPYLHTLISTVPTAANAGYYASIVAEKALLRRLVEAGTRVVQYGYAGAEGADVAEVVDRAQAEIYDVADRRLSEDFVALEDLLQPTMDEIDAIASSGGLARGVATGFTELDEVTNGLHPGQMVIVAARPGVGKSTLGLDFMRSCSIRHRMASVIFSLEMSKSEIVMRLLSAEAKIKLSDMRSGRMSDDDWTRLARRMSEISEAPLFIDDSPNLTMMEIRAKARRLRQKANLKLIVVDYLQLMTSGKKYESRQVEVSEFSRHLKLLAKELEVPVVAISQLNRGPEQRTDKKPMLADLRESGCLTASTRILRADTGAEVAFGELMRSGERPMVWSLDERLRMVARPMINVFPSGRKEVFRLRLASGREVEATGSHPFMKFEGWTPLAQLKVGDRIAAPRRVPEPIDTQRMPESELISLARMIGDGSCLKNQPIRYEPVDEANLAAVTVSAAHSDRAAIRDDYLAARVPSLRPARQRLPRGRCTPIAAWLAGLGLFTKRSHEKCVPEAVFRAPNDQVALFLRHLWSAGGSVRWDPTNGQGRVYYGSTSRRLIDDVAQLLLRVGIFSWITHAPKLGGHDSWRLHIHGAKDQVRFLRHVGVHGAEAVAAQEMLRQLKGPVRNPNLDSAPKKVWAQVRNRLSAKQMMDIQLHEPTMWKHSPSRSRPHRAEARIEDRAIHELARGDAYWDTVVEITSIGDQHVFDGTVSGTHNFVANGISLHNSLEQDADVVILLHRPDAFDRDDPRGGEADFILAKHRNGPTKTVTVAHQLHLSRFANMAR
The experiment in a line: DnaB intein splicing inhibitors, dose response, biochemical, cell-free fluorescence (AID 449749). In kind it is functional.

Test [9] deals with T3, Protein RecA (Mycobacterium tuberculosis, UniProt P9WHJ3).
T3 sequence (P9WHJ3 whole entry): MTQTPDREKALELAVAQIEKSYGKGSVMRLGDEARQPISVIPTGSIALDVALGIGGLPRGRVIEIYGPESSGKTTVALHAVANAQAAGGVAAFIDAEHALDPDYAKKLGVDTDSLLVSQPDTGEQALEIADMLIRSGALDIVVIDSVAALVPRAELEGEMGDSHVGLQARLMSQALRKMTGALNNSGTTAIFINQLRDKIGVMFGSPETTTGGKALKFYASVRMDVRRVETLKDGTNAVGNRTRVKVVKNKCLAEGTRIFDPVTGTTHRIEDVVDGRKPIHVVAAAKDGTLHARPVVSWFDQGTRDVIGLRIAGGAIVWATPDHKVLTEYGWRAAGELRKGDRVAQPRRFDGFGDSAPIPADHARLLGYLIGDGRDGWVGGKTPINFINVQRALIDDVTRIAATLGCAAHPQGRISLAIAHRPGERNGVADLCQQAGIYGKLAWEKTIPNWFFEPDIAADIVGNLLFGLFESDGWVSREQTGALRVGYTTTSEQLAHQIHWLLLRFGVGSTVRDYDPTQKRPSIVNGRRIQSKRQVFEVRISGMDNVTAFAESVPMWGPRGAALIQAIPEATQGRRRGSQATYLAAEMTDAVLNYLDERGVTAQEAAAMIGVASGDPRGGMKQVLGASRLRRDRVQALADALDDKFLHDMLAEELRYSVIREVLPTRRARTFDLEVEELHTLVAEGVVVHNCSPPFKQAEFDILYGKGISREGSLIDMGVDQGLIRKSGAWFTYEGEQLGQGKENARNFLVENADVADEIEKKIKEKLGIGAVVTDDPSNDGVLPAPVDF
The experiment in a line: Fluorescence Cell-Free Homogeneous Dose Retest to Identify Inhibitors of RecA-Intein Splicing Activity. [Related pubchem assays (depositor defined):AID2097, AID2223, AID489010, AID492950]. In kind it is functional.

For test [10], the target named is T4, Mitochondrial peptide methionine sulfoxide reductase (Bos taurus, UniProt P54149).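 Note: absorbance read-out, biochemical high-throughput dose-response screen for MsrA inhibitors, confirmatory; recombinant bovine MsrA coupled to E. coli TrxB with NADPH and selenocystamine; potency is for inhibitors of MsrA activity on DMSO substrate.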
T4 sequence (P54149 whole entry): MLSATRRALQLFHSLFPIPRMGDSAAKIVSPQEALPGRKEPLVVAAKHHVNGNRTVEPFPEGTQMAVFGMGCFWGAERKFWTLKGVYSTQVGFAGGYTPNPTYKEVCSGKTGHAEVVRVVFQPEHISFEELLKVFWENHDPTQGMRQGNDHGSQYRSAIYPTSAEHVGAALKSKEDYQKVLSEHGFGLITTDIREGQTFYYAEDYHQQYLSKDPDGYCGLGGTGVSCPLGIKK
In kind it is functional.

The target of test [11] is Voltage-dependent T-type calcium channel subunit alpha-1H (Homo sapiens, UniProt O95180). In kind it is functional.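 Note: channel activity triggered by adding a high calcium stimulation buffer.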
Sequence of Voltage-dependent T-type calcium channel subunit alpha-1H (O95180 whole entry): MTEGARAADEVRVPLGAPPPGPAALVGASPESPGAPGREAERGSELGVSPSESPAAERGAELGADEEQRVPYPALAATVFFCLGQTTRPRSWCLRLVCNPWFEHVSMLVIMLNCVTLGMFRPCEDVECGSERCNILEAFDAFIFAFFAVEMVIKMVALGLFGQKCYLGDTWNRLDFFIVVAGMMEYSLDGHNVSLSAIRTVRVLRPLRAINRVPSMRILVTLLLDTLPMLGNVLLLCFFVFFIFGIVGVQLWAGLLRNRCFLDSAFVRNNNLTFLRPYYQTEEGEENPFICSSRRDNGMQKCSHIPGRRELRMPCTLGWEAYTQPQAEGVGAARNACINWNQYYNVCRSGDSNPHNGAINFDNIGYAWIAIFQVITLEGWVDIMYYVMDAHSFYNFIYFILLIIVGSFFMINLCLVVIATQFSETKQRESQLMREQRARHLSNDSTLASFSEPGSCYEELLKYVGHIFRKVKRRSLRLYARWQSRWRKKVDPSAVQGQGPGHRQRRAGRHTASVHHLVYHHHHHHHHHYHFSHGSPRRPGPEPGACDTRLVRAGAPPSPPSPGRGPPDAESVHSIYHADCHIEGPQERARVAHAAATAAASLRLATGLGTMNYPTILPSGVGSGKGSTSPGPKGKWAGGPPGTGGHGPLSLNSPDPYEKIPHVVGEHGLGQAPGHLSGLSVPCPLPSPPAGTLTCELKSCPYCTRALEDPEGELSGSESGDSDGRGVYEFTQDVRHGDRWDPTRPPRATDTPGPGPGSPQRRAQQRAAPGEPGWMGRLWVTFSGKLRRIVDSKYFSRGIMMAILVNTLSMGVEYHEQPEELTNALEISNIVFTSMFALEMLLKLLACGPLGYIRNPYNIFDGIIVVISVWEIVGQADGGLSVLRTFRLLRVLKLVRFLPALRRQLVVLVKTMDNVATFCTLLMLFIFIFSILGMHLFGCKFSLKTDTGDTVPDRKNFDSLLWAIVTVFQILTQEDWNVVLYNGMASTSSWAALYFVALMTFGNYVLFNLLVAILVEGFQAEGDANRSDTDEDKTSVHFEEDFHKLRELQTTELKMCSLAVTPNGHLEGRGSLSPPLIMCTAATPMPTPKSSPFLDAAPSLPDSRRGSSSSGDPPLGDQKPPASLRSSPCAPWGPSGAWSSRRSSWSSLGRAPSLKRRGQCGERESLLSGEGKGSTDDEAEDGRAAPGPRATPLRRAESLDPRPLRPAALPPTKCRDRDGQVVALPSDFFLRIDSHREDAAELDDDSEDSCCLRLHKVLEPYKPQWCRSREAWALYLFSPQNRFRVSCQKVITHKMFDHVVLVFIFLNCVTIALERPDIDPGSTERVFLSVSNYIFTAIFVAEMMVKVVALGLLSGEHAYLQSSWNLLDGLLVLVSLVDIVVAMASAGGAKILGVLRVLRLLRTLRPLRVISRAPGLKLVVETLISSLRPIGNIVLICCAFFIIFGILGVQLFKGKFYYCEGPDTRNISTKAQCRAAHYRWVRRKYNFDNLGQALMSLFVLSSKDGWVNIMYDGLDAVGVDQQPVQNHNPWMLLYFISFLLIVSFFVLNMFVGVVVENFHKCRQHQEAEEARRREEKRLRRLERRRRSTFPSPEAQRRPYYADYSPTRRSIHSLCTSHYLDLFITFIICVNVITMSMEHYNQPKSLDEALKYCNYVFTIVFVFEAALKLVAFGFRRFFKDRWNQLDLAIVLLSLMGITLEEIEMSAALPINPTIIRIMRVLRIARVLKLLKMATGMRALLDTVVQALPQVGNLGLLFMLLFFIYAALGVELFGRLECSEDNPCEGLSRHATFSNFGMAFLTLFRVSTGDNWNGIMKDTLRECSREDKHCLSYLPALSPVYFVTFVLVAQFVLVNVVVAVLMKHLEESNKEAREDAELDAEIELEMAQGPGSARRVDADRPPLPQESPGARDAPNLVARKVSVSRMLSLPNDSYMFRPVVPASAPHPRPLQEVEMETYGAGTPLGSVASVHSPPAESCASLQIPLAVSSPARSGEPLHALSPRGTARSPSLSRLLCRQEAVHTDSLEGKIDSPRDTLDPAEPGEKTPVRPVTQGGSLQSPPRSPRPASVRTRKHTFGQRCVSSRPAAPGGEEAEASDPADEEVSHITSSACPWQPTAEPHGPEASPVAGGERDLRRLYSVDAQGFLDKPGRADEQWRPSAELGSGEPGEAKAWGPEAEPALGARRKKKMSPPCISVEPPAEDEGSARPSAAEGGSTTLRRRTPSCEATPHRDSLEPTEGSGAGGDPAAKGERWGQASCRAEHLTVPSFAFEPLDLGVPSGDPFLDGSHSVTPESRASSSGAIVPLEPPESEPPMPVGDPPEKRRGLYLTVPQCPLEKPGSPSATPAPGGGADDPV
For test [12], the target named is Potassium voltage-gated channel subfamily KQT member 2 (Rattus norvegicus, UniProt O88943). The experiment in a line: blockers of KCNQ2 channel current – cell-based, automated electrophysiology, set II, rat KCNQ2, dose response (AID 588637). In kind it is functional.
Sequence of Potassium voltage-gated channel subfamily KQT member 2 (O88943 whole entry): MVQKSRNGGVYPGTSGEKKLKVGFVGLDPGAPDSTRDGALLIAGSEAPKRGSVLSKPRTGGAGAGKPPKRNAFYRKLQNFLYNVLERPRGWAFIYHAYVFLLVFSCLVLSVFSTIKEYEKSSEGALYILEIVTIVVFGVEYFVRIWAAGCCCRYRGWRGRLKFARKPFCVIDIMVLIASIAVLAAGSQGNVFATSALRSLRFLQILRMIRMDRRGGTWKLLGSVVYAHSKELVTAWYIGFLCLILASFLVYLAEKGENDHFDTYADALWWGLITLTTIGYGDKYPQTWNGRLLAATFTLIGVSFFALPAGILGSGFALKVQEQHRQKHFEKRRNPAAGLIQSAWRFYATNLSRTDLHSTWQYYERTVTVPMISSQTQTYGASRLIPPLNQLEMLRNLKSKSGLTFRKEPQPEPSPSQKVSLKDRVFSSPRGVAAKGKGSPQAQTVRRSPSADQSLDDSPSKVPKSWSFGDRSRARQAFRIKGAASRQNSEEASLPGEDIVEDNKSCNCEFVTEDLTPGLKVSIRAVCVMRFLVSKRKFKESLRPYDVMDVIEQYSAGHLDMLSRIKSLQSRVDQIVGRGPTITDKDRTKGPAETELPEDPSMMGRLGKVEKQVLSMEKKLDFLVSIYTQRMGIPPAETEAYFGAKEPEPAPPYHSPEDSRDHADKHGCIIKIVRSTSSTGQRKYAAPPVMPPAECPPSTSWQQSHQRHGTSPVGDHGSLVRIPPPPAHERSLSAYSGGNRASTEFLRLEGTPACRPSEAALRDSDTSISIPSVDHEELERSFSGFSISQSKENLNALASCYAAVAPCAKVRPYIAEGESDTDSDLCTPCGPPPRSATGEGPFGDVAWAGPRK
Test [13] relates to H9c2. The experiment in a line: cells. In kind it is functional, cell-based. As to conditions: Rattus norvegicus, H9c2, Myocardium.
Test [14] deals with T5, ATP-dependent translocase ABCB1 (Homo sapiens, UniProt P08183). The experiment in a line: inhibition of BCRP-mediated JC-1 efflux – Ig-MXP3 cells, flow cytometry, set 2, dose response (AID 504566).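 Note: flow cytometry median green fluorescence of retained JC-1 dye; potency of efflux pump inhibition measured as rising substrate retention.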 In kind it is functional. The conditions noted are these: read-out: EC50_MICROM_. Background: In flow cytometry, cells or beads pass a laser one at a time.
T5 sequence (P08183 whole entry): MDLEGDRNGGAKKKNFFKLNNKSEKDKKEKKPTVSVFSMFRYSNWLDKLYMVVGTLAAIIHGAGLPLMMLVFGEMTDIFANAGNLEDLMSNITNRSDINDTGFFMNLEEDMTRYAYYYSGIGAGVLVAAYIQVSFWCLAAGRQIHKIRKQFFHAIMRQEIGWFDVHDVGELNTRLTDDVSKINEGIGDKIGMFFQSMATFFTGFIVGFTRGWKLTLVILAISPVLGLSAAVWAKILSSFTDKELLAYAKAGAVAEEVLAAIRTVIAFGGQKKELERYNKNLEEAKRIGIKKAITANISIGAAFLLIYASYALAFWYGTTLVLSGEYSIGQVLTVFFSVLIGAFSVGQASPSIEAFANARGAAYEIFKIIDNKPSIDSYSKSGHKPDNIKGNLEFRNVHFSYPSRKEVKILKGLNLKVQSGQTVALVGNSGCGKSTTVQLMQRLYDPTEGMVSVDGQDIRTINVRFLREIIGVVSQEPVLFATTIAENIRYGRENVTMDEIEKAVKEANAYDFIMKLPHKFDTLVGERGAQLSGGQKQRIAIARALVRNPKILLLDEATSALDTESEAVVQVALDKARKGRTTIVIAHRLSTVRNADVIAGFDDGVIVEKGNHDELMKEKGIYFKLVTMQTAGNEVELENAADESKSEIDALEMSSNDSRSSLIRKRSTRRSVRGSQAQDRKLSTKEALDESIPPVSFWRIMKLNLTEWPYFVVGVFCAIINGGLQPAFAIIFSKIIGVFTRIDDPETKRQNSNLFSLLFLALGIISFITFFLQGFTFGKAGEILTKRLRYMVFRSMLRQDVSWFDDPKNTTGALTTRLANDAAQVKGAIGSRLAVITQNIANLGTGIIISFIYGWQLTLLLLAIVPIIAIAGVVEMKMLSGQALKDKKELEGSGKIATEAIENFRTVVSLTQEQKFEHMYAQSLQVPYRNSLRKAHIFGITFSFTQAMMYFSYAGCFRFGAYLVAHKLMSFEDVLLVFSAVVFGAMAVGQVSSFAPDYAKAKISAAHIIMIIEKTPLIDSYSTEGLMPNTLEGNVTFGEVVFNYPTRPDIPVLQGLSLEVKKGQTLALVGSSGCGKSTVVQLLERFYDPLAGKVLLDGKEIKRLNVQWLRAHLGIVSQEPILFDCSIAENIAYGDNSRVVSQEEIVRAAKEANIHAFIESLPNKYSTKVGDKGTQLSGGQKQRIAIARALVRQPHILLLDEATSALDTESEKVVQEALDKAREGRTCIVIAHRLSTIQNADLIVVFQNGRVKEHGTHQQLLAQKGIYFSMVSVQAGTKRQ
Test [15] concerns the target T5, ATP-dependent translocase ABCB1. The experiment in a line: P-gp JC-1 efflux blockade concentration-response – Jurkat-DNR cells, flow cytometry, set 2, dose response (AID 504569).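 Note: potency of pump inhibitors that raise cellular JC-1 green fluorescence up to the nicardipine level.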 In kind it is functional. As to conditions: read-out: EC50_MICROM_.
The target of test [16] is T6, Apoptotic protease-activating factor 1 (Homo sapiens, UniProt O14727).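 Note: caspase-3 cleavage of fluorogenic Rh110 DEVD substrate downstream of apoptosome activation.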
T6 sequence (O14727 whole entry): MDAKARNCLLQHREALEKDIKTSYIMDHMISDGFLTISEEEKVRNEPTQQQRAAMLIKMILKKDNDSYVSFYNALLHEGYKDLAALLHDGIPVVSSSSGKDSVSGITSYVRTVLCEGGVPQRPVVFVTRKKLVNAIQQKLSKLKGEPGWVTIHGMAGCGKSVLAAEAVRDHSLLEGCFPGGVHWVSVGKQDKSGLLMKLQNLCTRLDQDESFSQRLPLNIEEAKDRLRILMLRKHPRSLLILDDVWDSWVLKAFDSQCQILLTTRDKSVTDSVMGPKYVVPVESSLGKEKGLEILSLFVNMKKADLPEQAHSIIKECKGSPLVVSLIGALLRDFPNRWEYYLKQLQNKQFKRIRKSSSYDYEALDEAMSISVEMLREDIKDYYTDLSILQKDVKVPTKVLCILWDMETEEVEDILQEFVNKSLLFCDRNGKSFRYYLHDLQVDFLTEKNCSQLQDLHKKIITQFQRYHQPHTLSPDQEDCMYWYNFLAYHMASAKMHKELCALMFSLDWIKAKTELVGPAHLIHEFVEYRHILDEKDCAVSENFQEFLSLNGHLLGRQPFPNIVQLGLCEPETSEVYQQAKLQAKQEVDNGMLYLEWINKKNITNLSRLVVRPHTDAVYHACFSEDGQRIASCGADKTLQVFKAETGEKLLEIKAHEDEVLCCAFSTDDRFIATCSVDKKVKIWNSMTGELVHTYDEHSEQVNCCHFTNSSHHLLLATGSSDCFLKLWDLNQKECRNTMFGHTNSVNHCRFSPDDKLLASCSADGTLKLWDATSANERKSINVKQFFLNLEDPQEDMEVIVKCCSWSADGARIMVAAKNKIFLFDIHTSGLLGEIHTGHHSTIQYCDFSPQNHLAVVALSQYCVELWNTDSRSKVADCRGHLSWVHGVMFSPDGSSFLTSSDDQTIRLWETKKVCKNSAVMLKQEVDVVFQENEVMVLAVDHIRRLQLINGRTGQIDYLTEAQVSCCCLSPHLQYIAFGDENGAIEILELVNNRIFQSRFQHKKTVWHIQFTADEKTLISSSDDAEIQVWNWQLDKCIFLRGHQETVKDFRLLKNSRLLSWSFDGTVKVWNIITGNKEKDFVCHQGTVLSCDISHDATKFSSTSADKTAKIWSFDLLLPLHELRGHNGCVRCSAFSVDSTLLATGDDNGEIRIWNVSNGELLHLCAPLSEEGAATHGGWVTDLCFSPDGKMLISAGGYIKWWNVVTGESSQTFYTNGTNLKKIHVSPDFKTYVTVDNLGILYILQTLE
The experiment in a line: SAR analysis of small molecule Activators of Apaf-1 in a Fluorescent assay. In kind it is functional. As to conditions: read-out: EC50_Mean.

The target of test [17] is Nuclear receptor subfamily 5 group A member 2 (Homo sapiens, UniProt O00482). In kind it is functional, cell-based.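 Note: HEK293T cells transfected with LRH-1 and a StAR promoter luciferase reporter; potency for inhibitors that lower LRH-1 driven reporter light.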
For test [18], the target named is Steroidogenic factor 1 (Homo sapiens, UniProt Q13285). The experiment in a line: Counterscreen for inverse agonists of the liver receptor homolog-1 (LRH-1; NR5A2): Luminescence-based cell-based high throughput dose response assay to identify inverse agonists of the Steroidogenic Factor 1 Nuclear Receptor (SF1; NR5A1). In kind it is functional.
Sequence of Steroidogenic factor 1 (Q13285 whole entry): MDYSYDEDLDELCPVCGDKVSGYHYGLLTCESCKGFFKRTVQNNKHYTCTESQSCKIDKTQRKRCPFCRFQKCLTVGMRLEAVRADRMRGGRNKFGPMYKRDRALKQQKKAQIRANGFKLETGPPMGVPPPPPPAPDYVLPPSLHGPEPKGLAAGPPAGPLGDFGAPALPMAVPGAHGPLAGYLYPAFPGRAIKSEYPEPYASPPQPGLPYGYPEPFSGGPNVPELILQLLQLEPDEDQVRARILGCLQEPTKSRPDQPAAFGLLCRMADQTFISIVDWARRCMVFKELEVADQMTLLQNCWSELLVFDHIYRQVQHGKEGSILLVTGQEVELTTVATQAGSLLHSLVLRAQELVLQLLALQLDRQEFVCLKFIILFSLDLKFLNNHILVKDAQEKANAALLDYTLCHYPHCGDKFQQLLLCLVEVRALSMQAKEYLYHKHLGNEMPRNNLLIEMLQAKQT
Test [19] in a line: nonselective StAR promoter luciferase inhibitors – cell-based, luminescence, luciferase reporter, counter-screen for LRH-1 inverse agonist project, dose response (AID 651969). In kind it is functional.

Activity calls are given as the source filed them. A value given as a limit tells only on which side of the number the result lay.

Regarding `O=C(C1=C(c2ccccc2)C(=O)c2ccccc2C1=O)c1ccccc1`, the EC50 in test [1] is 5.95 µM (inconclusive); in test [2], 7.17 µM (active); in test [3], 2.73 µM (active); in test [4], 2.72 µM (active); in test [5], 8.65 µM (inconclusive); in test [6] it was > 150 µM (not active). The EC50 in test [9] is 862 nM (active). The IC50 (usually the concentration at which inhibition is half-maximal) in [7] is 10.1 µM (active); in test [10], 13.8 µM (inactive). In test [8], the AC50 (commonly the concentration giving half of the maximal activity seen) is 8.2 µM (active).
With `CCOc1ccc(-c2nc(CSCC(=O)NC3CCCc4ccccc43)c(C)o2)cc1` (centres undefined), the EC50 in [11] was 3.26 µM (active). Besides, in test [12], the IC50 is 1.51 µM (active).
In the case of `O=C(c1ccoc1)N1CCN(c2cc(-c3ccncc3)nc3cc(-c4cccc(Cl)c4)nn23)CC1`, the IC50 in [13] was > 79 µM (inactive). The EC50 is 2.21 µM (active) in test [14] and 3.43 µM (active) in test [15].
For the compound `O=C(O)c1coc(-c2ccc(-c3ccccc3)cc2)n1`, in [16], the EC50 is > 100 µM (inactive).
`CC(=O)Nc1ccc(NC(=O)CSc2nnc(-c3cc4ccccc4o3)n2C)cc1`: the IC50 is 35.9 µM (inactive) in test [17], 18.2 µM (inactive) in test [18] and 35.9 µM (inactive) in test [19].

Source of the values: ChEMBL document CHEMBL1201862, “PubChem BioAssay data set” (2004).
